pIC50: −log10 of the molar value. Entries after “also recorded” stand apart in the source; their conditions may differ. Where two headings read alike, the source gives them in different places.
Key:
Human MPO = Human MPO (Homo sapiens (Human), UniProt P05164); test: Myeloperoxidase (MPO) inhibition IC50 screening; type: biochemical
Description: To discover new therapeutics for the treatment of Graves' disease, the inventors screened compounds for inhibition activity against myeloperoxidase (MPO). The screening process is schematically represented in FIG. 1. Use was made of approximately 7,000 compounds for the screening.

HL-60 MPO = HL-60 MPO (Homo sapiens (Human), UniProt P05164); test: HL-60 MPO inhibition, drugs treated to media; type: cell-based
Method: The screening of compounds for MPO inhibition activity was conducted in three stages.

thyroid peroxidase (TPO) = thyroid peroxidase (TPO) (Homo sapiens (Human), UniProt P07202); test: Thyroid peroxidase (TPO) inhibition IC50; type: biochemical; details: Table 3
[1] = test system: TPO (thyroid peroxidase) expression; test: Inhibition of TPO expression in SNU760 cells; type: cell-based; details: 50 uM, SNU760 Human Thyroid cell lines, FIG. 2
Method: (§1) To confirm whether the imidazopyridine scaffold-bearing compounds screened in Example 1 could be used as treatments for Graves' disease, SNU760 Human Thyroid cell lines were treated with various concentrations of each compound and then analyzed their ability to inhibit the expression of TPO (thyroid peroxidase) and TG (thyroglobulin).

[2] = test system: TG (thyroglobulin) expression; test: Inhibition of TG expression in SNU760 cells; type: cell-based; details: 50 uM, SNU760 Human Thyroid cell lines, FIG. 2
Method: as §1

[3] = test system: Graves' disease-induced mice; test: Thyroid size in Graves' disease-induced (Ad-TSHR) mice; type: in vivo, BALB/c mice; details: 10 mg/kg daily for three weeks, abdominal cavity, vs Ad-TSHR group, FIG. 7
Method: (§2) To create a mouse model with induced Graves' disease, 6-week-old female BALB/c mice were used. The thyroid stimulating hormone receptor (TSHR) expressing adenovirus, Ad-TSHR, was purchased from VectorBuilder (Chicago, USA, www.vectorbuilder.com). […] The virus was injected three times at three-week intervals, totaling nine weeks of injections to induce overexpression of TSHR and thereby cause Graves' disease.
(§3) In the Graves' disease-induced mouse model established in <3-1>, the therapeutic effectiveness of the imidazopyridine scaffold-bearing compounds screened in the present disclosure was evaluated.
(§4) After extracting the thyroid glands from each mouse, the sizes of the thyroids were visually compared, and the concentration of thyroxine (T4) in the blood was analyzed.

[4] = test system: Graves' disease-induced mice; test: Serum thyroxine (T4) in Graves' disease-induced (Ad-TSHR) mice; type: in vivo, BALB/c mice; details: 10 mg/kg daily for three weeks, abdominal cavity, FIG. 8
Method: as §2, §3, §4
After administering drugs for three weeks to mice in which Graves' disease was induced by the Ad-TSHR virus over nine weeks, the serum was isolated to measure the concentration of thyroxine (T4).

Sequence of Human MPO (P05164 49-745): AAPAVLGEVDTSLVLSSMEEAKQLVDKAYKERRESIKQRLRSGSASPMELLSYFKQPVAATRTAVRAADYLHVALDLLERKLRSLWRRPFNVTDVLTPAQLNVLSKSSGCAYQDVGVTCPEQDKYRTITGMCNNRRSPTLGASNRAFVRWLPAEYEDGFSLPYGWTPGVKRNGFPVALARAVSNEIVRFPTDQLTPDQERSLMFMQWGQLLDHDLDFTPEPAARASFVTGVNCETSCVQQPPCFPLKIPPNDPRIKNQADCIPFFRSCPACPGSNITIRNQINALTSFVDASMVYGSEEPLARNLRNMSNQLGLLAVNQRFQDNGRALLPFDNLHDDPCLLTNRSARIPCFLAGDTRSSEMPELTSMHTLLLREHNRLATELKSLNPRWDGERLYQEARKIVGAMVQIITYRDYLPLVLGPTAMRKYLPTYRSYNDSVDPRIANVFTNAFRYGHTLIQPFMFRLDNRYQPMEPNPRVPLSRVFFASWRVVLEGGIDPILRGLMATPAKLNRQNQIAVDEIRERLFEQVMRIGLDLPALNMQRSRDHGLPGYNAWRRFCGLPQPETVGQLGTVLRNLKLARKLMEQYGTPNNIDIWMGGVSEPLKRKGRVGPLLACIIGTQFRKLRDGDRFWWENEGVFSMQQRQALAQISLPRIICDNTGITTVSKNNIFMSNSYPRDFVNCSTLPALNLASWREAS
Sequence of HL-60 MPO (P05164 49-745): as above
Sequence of thyroid peroxidase (TPO) (P07202 19-933, species assumed): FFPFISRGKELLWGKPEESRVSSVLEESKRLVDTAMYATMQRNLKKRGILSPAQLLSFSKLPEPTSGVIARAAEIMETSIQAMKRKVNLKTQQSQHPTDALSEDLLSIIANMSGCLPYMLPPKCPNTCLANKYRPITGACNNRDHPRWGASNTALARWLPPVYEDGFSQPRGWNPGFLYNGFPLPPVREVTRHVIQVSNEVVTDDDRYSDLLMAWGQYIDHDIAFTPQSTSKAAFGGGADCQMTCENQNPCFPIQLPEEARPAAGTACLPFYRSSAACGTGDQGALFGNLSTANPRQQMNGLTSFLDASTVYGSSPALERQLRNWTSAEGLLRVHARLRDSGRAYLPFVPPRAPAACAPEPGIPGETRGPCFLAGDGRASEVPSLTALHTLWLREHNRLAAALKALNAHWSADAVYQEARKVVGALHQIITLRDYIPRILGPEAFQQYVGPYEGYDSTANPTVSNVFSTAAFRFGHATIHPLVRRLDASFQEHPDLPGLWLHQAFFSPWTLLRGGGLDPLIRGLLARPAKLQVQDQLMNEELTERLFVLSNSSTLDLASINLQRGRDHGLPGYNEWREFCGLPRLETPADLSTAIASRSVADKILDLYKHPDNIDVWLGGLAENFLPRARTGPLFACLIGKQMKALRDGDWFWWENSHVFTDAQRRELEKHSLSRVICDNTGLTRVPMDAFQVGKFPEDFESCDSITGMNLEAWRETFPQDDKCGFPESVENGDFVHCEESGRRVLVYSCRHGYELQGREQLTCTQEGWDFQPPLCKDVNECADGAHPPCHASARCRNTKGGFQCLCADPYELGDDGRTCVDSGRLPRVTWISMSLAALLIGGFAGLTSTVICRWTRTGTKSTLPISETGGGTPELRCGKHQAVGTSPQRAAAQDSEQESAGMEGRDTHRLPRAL

CC(C)OCCn1c(=S)[nH]c(=O)c2[nH]ccc21 [AZD3241]
pIC50 (Human MPO; Chemical Library 2nd Screening, MPO, read-out: IC50): 7.68 | IC50 (Human MPO; Chemical Library 3rd Screening, read-out: IC50 (uM) (Human MPO)): 0.021 µM | HL-60 MPO Inhibition (%) (treat to media) (HL-60 MPO; 2nd Screening): 0% | inhibition at 25 µM (HL-60 MPO; HL-60, 3rd Screening, 25 uM, read-out: HL-60 MPO Inhibition (%) (25 uM of Drugs are treated to media)): 0%

COc1ccc(-c2nc3cc(C)ccn3c2Nc2ccc3c(c2)OCO3)cc1 [NE-2-7, N-(2H-1,3-BENZODIOXOL-5- YL)-2-(4-METHOXYPHENYL)-7- METHYLIMIDAZO[1,2- A]PYRIDIN-3-AMINE]
IC50 (thyroid peroxidase (TPO)): 0.02 µM

Cc1ccc2nc(-c3cccnc3)c(Nc3ccc4c(c3)OCO4)n2c1 [NE-2-6, N-(2H-1,3-BENZODIOXOL-5-YL)-6-METHYL-2-(PYRIDIN-3-YL) IMIDAZO [1,2-A]PYRIDIN-3-AMINE]
inhibition of the expression of TPO [1]: ~100% | inhibition of the expression of TG [2]: ~100% | thyroid size (visually compared) [3]: effectively reduced thyroid sizes; also recorded: nearly restored to normal levels | serum thyroxine (T4) concentration [4]: significant reduction; also recorded: more effective
